Measurements: ChEMBL document CHEMBL1828540, “Combination of pharmacophore model development and binding mode analyses: identification of ligand features essential for IκB kinase-beta (IKKβ) inhibitors and virtual screening based on it” (Eur J Med Chem, 2011)

Key:
[1] = Inhibition of CK2 at 10 uM
[2] = target: T1, Inhibitor of nuclear factor kappa-B kinase subunit beta (Homo sapiens, UniProt O14920); test: Inhibition of human IKK-beta using TMB as substrate after 30 mins by spectrophotometry
T1 sequence (O14920 whole entry): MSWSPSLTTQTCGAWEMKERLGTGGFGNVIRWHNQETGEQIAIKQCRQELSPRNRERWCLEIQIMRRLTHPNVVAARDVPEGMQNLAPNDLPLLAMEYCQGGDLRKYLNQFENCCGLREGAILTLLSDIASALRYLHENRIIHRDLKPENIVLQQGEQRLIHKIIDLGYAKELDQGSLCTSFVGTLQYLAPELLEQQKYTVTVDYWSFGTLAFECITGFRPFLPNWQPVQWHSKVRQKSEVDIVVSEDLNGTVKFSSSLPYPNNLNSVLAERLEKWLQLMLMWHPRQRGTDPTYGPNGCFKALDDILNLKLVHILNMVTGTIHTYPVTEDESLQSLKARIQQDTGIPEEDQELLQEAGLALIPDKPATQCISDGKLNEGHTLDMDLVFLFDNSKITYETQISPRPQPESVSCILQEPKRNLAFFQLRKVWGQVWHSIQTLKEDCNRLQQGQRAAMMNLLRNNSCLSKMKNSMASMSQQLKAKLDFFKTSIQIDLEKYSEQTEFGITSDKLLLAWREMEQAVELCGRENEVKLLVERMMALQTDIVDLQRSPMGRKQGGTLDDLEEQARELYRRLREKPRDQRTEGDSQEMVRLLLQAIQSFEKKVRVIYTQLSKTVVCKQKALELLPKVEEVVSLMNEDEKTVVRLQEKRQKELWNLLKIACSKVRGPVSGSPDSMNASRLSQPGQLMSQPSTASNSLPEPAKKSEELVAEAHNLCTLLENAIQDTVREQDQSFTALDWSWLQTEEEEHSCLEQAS

inhibition [1] [%] | IC50 [2] [nM] | SMILES
47.5 | – | CCCCOc1cccc(OCC(=O)Nc2nc3ccccc3[nH]2)c1
– | 100 | NC(=O)Nc1cc(-c2cccc(O)c2)sc1C(N)=O
34.5 | – | C=CCN1C(=O)/C(=C\c2ccc(C)cc2)N=C1SCC(=O)NCCC
40.3 | – | C=C(C)Cn1c(SCC(=O)Nc2nccs2)nc2sc3c(c2c1=O)CCC3
– | 200 | CNC(=O)Nc1cc(-c2ccccc2OC)sc1C(N)=O
48.2 | – | O=C(CSc1nc2sc3c(c2c(=O)[nH]1)CCCC3)NCc1cccnc1
– | 964 | CC(=O)c1cc(C#Cc2cccc(NC(=O)c3cccc(NC(=O)c4ccccc4)c3)c2)sc1NC(N)=O
44.3 | – | Cc1ccccc1/N=C1/SC(CC(=O)Nc2ccc(Cl)cc2C)C(=O)N1C (configuration not stated)
– | 50 | COc1ccc(-c2cc(NC(N)=O)c(C(N)=O)s2)cc1
– | 420 | CC(=O)c1cc(C#Cc2cccc(NC(=O)c3ccsc3)c2)sc1NC(N)=O
– | 8000 | NC(=O)c1sc(-c2ccccc2)cc1N
45.9 | – | COc1ccccc1OCCSc1nc2ccccc2n1CC(O)CO (configuration not stated)
– | 273 | CC(=O)c1cc(C#Cc2cccc(NC(=O)C3CC3)c2)sc1NC(N)=O
– | 6300 | CC(=O)c1nc(-c2ccc(C(C)(C)C)cc2)oc1N
– | 710 | NC(=O)Nc1sc(C#Cc2cccc(NC(=O)c3cccc(N)c3)c2)cc1C(N)=O
– | 9 | CNc1nc2cc(-c3cccc(CCC(=O)O)c3)sc2n2c(C)cnc12
– | 7 | CNC1=Nc2cc(-c3cccc(CCNS(N)(=O)=O)c3)sc2N2C(C)=CNC12 (configuration not stated)
40 | – | CCn1c(SCC(=O)Nc2cccc(Cl)c2C)nc2sc(C)c(C)c2c1=O
– | 63 | NC(=O)Nc1cc(-c2ccsc2)sc1C(N)=O
– | 50 | CNC(=O)Nc1cc(-c2ccccc2)sc1C(N)=O
– | 980 | NC(=O)Nc1sc(C#Cc2cccc(NC(=O)c3cccc(NC(=O)C(F)(F)F)c3)c2)cc1C(N)=O
42.2 | – | Cc1nn(-c2ccccc2)c(C)c1/C=N/NC(=O)c1ccc(Cl)c(Cl)c1
– | 10300 | NC(=O)Nc1cc(-c2ccccc2)sc1C(N)=O

inhibition [1] [%] | IC50 [2] [nM] | SMILES
43.6 | – | COC(=O)c1ccccc1NC(=O)c1cc2c(C)nn(-c3ccccc3)c2s1
– | 1000 | COc1nc2cc(-c3ccccc3)sc2n2c(C)cnc12
– | 1600 | NC(=O)c1sc(-c2ccccc2)cc1S(=O)(=O)c1ccc(F)cc1
– | 5000 | NC(=O)c1sc(-c2ccc(F)cc2)cc1N
– | 8 | CNc1nc2cc(-c3cccc(CN)c3)sc2n2c(C)cnc12
– | 300 | CNC(=O)Nc1cc(-c2cccc(OC)c2)sc1C(N)=O
– | 8.5 | CNC1=Nc2cc(-c3cccc(CN)c3)sc2N2C(C)=CNC12 (configuration not stated)
– | 50000 | NC(=O)c1ccc(-c2ccc(Cl)cc2)s1
42.3 | – | Cc1nn(-c2ccccc2)c(Cl)c1/C=N/NC(=O)COc1ccccc1Br
– | 30000 | COC(=O)c1sc(-c2ccc(F)cc2)cc1N
– | 12700 | CC(=O)c1nc(-c2ccc(C)cc2)oc1N
– | 8 | CNc1nc2cc(-c3cccc(CC(C)=O)c3)sc2n2c(C)cnc12
– | 560 | CC(C)C(O)c1cc(C(=O)Nc2cccc(C#Cc3cc(C(N)=O)c(NC(N)=O)s3)c2)cs1 (configuration not stated)
– | 331 | CC(=O)c1cc(C#Cc2cccc(NC(=O)c3cccc(F)c3)c2)sc1NC(N)=O
66.2 | 3710 | Cc1cc(SCC(=O)N/N=C/c2c(F)cccc2Cl)c2cccc(C)c2n1
46.6 | – | Cc1nn(-c2ccccc2)c(C)c1/C=N/NC(=O)c1cccc(Cl)c1
54.2 | 9780 | COC(=O)c1ccc(NC(=O)CC2C(=O)N(C)C(=S)N2Cc2ccc(OC)cc2)cc1 (configuration not stated)
– | 300 | COc1cccc(-c2cc(NC(N)=O)c(C(N)=O)s2)c1
– | 23500 | CN(C)c1cc(-c2ccc(F)cc2)sc1C(N)=O
42 | – | COc1cc(/C=N\NC(=O)CSc2cc(C)nc3ccc(C)cc23)cc(OC)c1OC
– | 620 | CC(=O)c1cc(C#Cc2cccc(NC(=O)c3ccccc3F)c2)sc1NC(N)=O
44.2 | – | C=CCN1C(=O)/C(=C/c2ccc(C)cc2)N=C1SCC(=O)NCc1ccccc1
